{
  "source": "PubChem BioAssay AID2060897",
  "about": "(Molecular Pharmacology Branch, DTP, NCI, 2025)",
  "test_system": "966289-007-R4-J1-PDC complex spheroid viability",
  "assay": "Anticancer human tumor 966289-007-R4-J1-PDC patient-derived pancreatic adenocarcinoma cell line growth inhibition [RAS]",
  "conditions": "for pIC50: curve of first compound; for viability, T/C: stronger effect = lower value",
  "method_in_brief": "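Agents were tested in combination matrices in half-log decrements from a top concentration at or near clinical Cmax (10 microM if undetermined). Targets were multi-cell spheroids of tumour lines plus HUVEC and MSC stromal cells.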",
  "key": {"[1]": {"conditions": "second compound 0.000949 µM, first compound 0.0316 µM"}, "[2]": {"conditions": "second compound 0.000949 µM, first compound 0.1 µM"}, "[3]": {"conditions": "second compound 0.000949 µM, first compound 0.316 µM"}, "[4]": {"conditions": "second compound 0.000949 µM, first compound 1 µM"}, "[5]": {"conditions": "second compound 0.000949 µM, first compound 3.16 µM"}, "[6]": {"conditions": "second compound 0.000949 µM, first compound 10 µM"}, "[7]": {"conditions": "second compound 0.003 µM, first compound 0.0316 µM"}, "[8]": {"conditions": "second compound 0.003 µM, first compound 0.1 µM"}, "[9]": {"conditions": "second compound 0.003 µM, first compound 0.316 µM"}, "[10]": {"conditions": "second compound 0.003 µM, first compound 1 µM"}, "[11]": {"conditions": "second compound 0.003 µM, first compound 3.16 µM"}, "[12]": {"conditions": "second compound 0.003 µM, first compound 10 µM"}, "[13]": {"conditions": "second compound 0.00949 µM, first compound 0.0316 µM"}, "[14]": {"conditions": "second compound 0.00949 µM, first compound 0.1 µM"}, "[15]": {"conditions": "second compound 0.00949 µM, first compound 0.316 µM"}, "[16]": {"conditions": "second compound 0.00949 µM, first compound 1 µM"}, "[17]": {"conditions": "second compound 0.00949 µM, first compound 3.16 µM"}, "[18]": {"conditions": "second compound 0.00949 µM, first compound 10 µM"}, "[19]": {"conditions": "second compound 0.03 µM, first compound 0.0316 µM"}, "[20]": {"conditions": "second compound 0.03 µM, first compound 0.1 µM"}, "[21]": {"conditions": "second compound 0.03 µM, first compound 0.316 µM"}, "[22]": {"conditions": "second compound 0.03 µM, first compound 1 µM"}, "[23]": {"conditions": "second compound 0.03 µM, first compound 3.16 µM"}, "[24]": {"conditions": "second compound 0.03 µM, first compound 10 µM"}, "[25]": {"conditions": "second compound 0.0949 µM, first compound 0.0316 µM"}, "[26]": {"conditions": "second compound 0.0949 µM, first compound 0.1 µM"}, "[27]": {"conditions": "second compound 0.0949 µM, first compound 0.316 µM"}, "[28]": {"conditions": "second compound 0.0949 µM, first compound 1 µM"}, "[29]": {"conditions": "second compound 0.0949 µM, first compound 3.16 µM"}, "[30]": {"conditions": "second compound 0.0949 µM, first compound 10 µM"}, "[31]": {"conditions": "second compound 0.3 µM, first compound 0.0316 µM"}, "[32]": {"conditions": "second compound 0.3 µM, first compound 0.1 µM"}, "[33]": {"conditions": "second compound 0.3 µM, first compound 0.316 µM"}, "[34]": {"conditions": "second compound 0.3 µM, first compound 1 µM"}, "[35]": {"conditions": "second compound 0.3 µM, first compound 3.16 µM"}, "[36]": {"conditions": "second compound 0.3 µM, first compound 10 µM"}},
  "note": "pIC50: −log10 of the molar value.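 Further: spheroids exposed to agents for one week before readout.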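 Wherever viability, T/C is given: percent viability relative to DMSO vehicle control wells as 100%.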",
  "data": [
    {"smiles": "CC1(O)CCCC1n1c(=O)c(C(F)F)cc2cnc(NC3CCN(S(C)(=O)=O)CC3)nc21", "note": "(centres undefined) + CCn1c(-c2cc(N3CCN(C)CC3)cnc2C(C)OC)c2c3cc(ccc31)-c1csc(n1)CC(NC(=O)C1CC1C)C(=O)N1CCCC(N1)C(=O)OCC(C)(C)C2", "values": [
      {"measurement": "pIC50", "setting": "second compound 0.000949 µM", "value": 6.77},
      {"measurement": "pIC50", "setting": "second compound 0.003 µM", "value": 6.92},
      {"measurement": "pIC50", "setting": "second compound 0.00949 µM", "value": 6.97},
      {"measurement": "pIC50", "setting": "second compound 0.03 µM", "value": 7.03},
      {"measurement": "pIC50", "setting": "second compound 0.0949 µM", "value": 7.02},
      {"measurement": "pIC50", "setting": "second compound 0.3 µM", "value": 6.86},
      {"measurement": "viability, T/C", "setting": "[1]", "value": 148, "unit": "%"},
      {"measurement": "viability, T/C", "setting": "[2]", "value": 63.6, "unit": "%"},
      {"measurement": "viability, T/C", "setting": "[3]", "value": 28.7, "unit": "%"},
      {"measurement": "viability, T/C", "setting": "[4]", "value": 29.1, "unit": "%"},
      {"measurement": "viability, T/C", "setting": "[5]", "value": 26.8, "unit": "%"},
      {"measurement": "viability, T/C", "setting": "[6]", "value": 2.64, "unit": "%"},
      {"measurement": "viability, T/C", "setting": "[7]", "value": 125, "unit": "%"},
      {"measurement": "viability, T/C", "setting": "[8]", "value": 51.6, "unit": "%"},
      {"measurement": "viability, T/C", "setting": "[9]", "value": 27.8, "unit": "%"},
      {"measurement": "viability, T/C", "setting": "[10]", "value": 24.4, "unit": "%"},
      {"measurement": "viability, T/C", "setting": "[11]", "value": 24.8, "unit": "%"},
      {"measurement": "viability, T/C", "setting": "[12]", "value": 3.3, "unit": "%"},
      {"measurement": "viability, T/C", "setting": "[13]", "value": 98.4, "unit": "%"},
      {"measurement": "viability, T/C", "setting": "[14]", "value": 52.7, "unit": "%"},
      {"measurement": "viability, T/C", "setting": "[15]", "value": 22.4, "unit": "%"},
      {"measurement": "viability, T/C", "setting": "[16]", "value": 25.9, "unit": "%"},
      {"measurement": "viability, T/C", "setting": "[17]", "value": 26, "unit": "%"},
      {"measurement": "viability, T/C", "setting": "[18]", "value": 3.14, "unit": "%"},
      {"measurement": "viability, T/C", "setting": "[19]", "value": 85, "unit": "%"},
      {"measurement": "viability, T/C", "setting": "[20]", "value": 48.6, "unit": "%"},
      {"measurement": "viability, T/C", "setting": "[21]", "value": 21.9, "unit": "%"},
      {"measurement": "viability, T/C", "setting": "[22]", "value": 23.7, "unit": "%"},
      {"measurement": "viability, T/C", "setting": "[23]", "value": 25.1, "unit": "%"},
      {"measurement": "viability, T/C", "setting": "[24]", "value": 3, "unit": "%"},
      {"measurement": "viability, T/C", "setting": "[25]", "value": 84.5, "unit": "%"},
      {"measurement": "viability, T/C", "setting": "[26]", "value": 47.4, "unit": "%"},
      {"measurement": "viability, T/C", "setting": "[27]", "value": 25.4, "unit": "%"},
      {"measurement": "viability, T/C", "setting": "[28]", "value": 27.1, "unit": "%"},
      {"measurement": "viability, T/C", "setting": "[29]", "value": 26.6, "unit": "%"},
      {"measurement": "viability, T/C", "setting": "[30]", "value": 2.94, "unit": "%"},
      {"measurement": "viability, T/C", "setting": "[31]", "value": 107, "unit": "%"},
      {"measurement": "viability, T/C", "setting": "[32]", "value": 55.9, "unit": "%"},
      {"measurement": "viability, T/C", "setting": "[33]", "value": 28.7, "unit": "%"},
      {"measurement": "viability, T/C", "setting": "[34]", "value": 25.8, "unit": "%"},
      {"measurement": "viability, T/C", "setting": "[35]", "value": 24.9, "unit": "%"},
      {"measurement": "viability, T/C", "setting": "[36]", "value": 3.18, "unit": "%"}
    ]},
    {"smiles": "CCC(CC)c1cc(NC2CCC(N)C2)n2nccc2n1", "note": "(centres undefined) + CCn1c(-c2cc(N3CCN(C)CC3)cnc2C(C)OC)c2c3cc(ccc31)-c1csc(n1)CC(NC(=O)C1CC1C)C(=O)N1CCCC(N1)C(=O)OCC(C)(C)C2", "values": [
      {"measurement": "pIC50", "setting": "second compound 0.000949 µM", "value": 5.84},
      {"measurement": "pIC50", "setting": "second compound 0.003 µM", "value": 5.81},
      {"measurement": "pIC50", "setting": "second compound 0.00949 µM", "value": 5.75},
      {"measurement": "pIC50", "setting": "second compound 0.03 µM", "value": 5.78},
      {"measurement": "pIC50", "setting": "second compound 0.0949 µM", "value": 5.73},
      {"measurement": "pIC50", "setting": "second compound 0.3 µM", "value": 5.73},
      {"measurement": "viability, T/C", "setting": "[1]", "value": 111, "unit": "%"},
      {"measurement": "viability, T/C", "setting": "[2]", "value": 89.1, "unit": "%"},
      {"measurement": "viability, T/C", "setting": "[3]", "value": 99.3, "unit": "%"},
      {"measurement": "viability, T/C", "setting": "[4]", "value": 71.5, "unit": "%"},
      {"measurement": "viability, T/C", "setting": "[5]", "value": 1.75, "unit": "%"},
      {"measurement": "viability, T/C", "setting": "[6]", "value": 1.38, "unit": "%"},
      {"measurement": "viability, T/C", "setting": "[7]", "value": 72.2, "unit": "%"},
      {"measurement": "viability, T/C", "setting": "[8]", "value": 98.3, "unit": "%"},
      {"measurement": "viability, T/C", "setting": "[9]", "value": 89.2, "unit": "%"},
      {"measurement": "viability, T/C", "setting": "[10]", "value": 79.2, "unit": "%"},
      {"measurement": "viability, T/C", "setting": "[11]", "value": 2.05, "unit": "%"},
      {"measurement": "viability, T/C", "setting": "[12]", "value": 1.33, "unit": "%"},
      {"measurement": "viability, T/C", "setting": "[13]", "value": 81.7, "unit": "%"},
      {"measurement": "viability, T/C", "setting": "[14]", "value": 103, "unit": "%"},
      {"measurement": "viability, T/C", "setting": "[15]", "value": 81.9, "unit": "%"},
      {"measurement": "viability, T/C", "setting": "[16]", "value": 131, "unit": "%"},
      {"measurement": "viability, T/C", "setting": "[17]", "value": 1.93, "unit": "%"},
      {"measurement": "viability, T/C", "setting": "[18]", "value": 1.58, "unit": "%"},
      {"measurement": "viability, T/C", "setting": "[19]", "value": 72.3, "unit": "%"},
      {"measurement": "viability, T/C", "setting": "[20]", "value": 86.8, "unit": "%"},
      {"measurement": "viability, T/C", "setting": "[21]", "value": 92.5, "unit": "%"},
      {"measurement": "viability, T/C", "setting": "[22]", "value": 98.9, "unit": "%"},
      {"measurement": "viability, T/C", "setting": "[23]", "value": 1.68, "unit": "%"},
      {"measurement": "viability, T/C", "setting": "[24]", "value": 2.28, "unit": "%"},
      {"measurement": "viability, T/C", "setting": "[25]", "value": 86.2, "unit": "%"},
      {"measurement": "viability, T/C", "setting": "[26]", "value": 111, "unit": "%"},
      {"measurement": "viability, T/C", "setting": "[27]", "value": 107, "unit": "%"},
      {"measurement": "viability, T/C", "setting": "[28]", "value": 119, "unit": "%"},
      {"measurement": "viability, T/C", "setting": "[29]", "value": 1.88, "unit": "%"},
      {"measurement": "viability, T/C", "setting": "[30]", "value": 1.55, "unit": "%"},
      {"measurement": "viability, T/C", "setting": "[31]", "value": 75.7, "unit": "%"},
      {"measurement": "viability, T/C", "setting": "[32]", "value": 116, "unit": "%"},
      {"measurement": "viability, T/C", "setting": "[33]", "value": 116, "unit": "%"},
      {"measurement": "viability, T/C", "setting": "[34]", "value": 117, "unit": "%"},
      {"measurement": "viability, T/C", "setting": "[35]", "value": 2.08, "unit": "%"},
      {"measurement": "viability, T/C", "setting": "[36]", "value": 1.97, "unit": "%"}
    ]}
  ]
}
